Measured values: US20230091225A1, “Bifunctional chimeric heterocyclic compounds for targeted degradation of androgen receptors and use thereof” (HINOVA PHARMACEUTICALS INC., priority 2019, published 2023)
pIC50: −log10 of the molar value. Where two headings read alike, the source gives them in different places.

Tested on: LNCaP/AR cells
Test: Inhibition of proliferation of LNCaP/AR prostate cancer cells (CCK-8)
Format: cell-based
[1] = 144 h, proliferation of LNCap/AR cells, 6 days, CCK-8, read-out: IC50
[2] = proliferation of LNCap/AR cells, 6 days, CCK-8, read-out: IC50

Question: With `Cc1ncsc1-c1ccc([C@H](C)NC(=O)[C@@H]2C[C@@H](O)CN2C(=O)[C@@H](NC(=O)COCCCCC#Cc2ccc(C(=O)N[C@H]3C(C)(C)[C@H](Oc4ccc(C#N)c(Br)c4)C3(C)C)cc2)C(C)(C)C)cc1` [Compound 404] as the compound, how does the pIC50 [1] read?
Answer: > 7.00

Question: `Cc1ncsc1-c1ccc([C@H](C)NC(=O)[C@@H]2C[C@@H](O)CN2C(=O)[C@@H](NC(=O)C2(OCCCCC#Cc3ccc4c(c3)CN(C3C(C)(C)C(Oc5ccc(C#N)c(Cl)c5)C3(C)C)C4=O)CC2)C(C)(C)C)cc1` (stereo partly shown) [Compound 41] was tested. Which pIC50 [2] did it give?
Answer: > 7.00

Question: How did the pIC50 [1] turn out when `Cc1ncsc1-c1ccc([C@H](C)NC(=O)[C@@H]2C[C@@H](O)CN2C(=O)[C@@H](NC(=O)COCC2CCN(c3ccc4c(c3)CN([C@H]3C(C)(C)[C@H](Oc5ccc(C#N)c(Cl)c5)C3(C)C)C4=O)CC2)C(C)(C)C)cc1` [Compound 409] was run?
Answer: > 7.00

Question: `Cc1ncsc1-c1ccc([C@H](C)NC(=O)[C@@H]2C[C@@H](O)CN2C(=O)[C@@H](NC(=O)COCCCCC#Cc2ccc3c(c2)CN([C@H]2C(C)(C)[C@H](Oc4ccc(C#N)c(Cl)c4)C2(C)C)C3=O)C(C)(C)C)cc1` [Compound 29] was tested. Which pIC50 [1] did it give?
Answer: > 7.00

Question: `CC1(C)[C@H](Oc2ccc(C#N)c(Cl)c2)C(C)(C)[C@H]1N1Cc2cc(C#CC3CCN(C4CCN(c5ccc6c(c5)C(=O)N(C5CCC(=O)NC5=O)C6=O)CC4)CC3)ccc2C1=O` (stereo partly shown) [Compound 52] was tested. Which pIC50 [1] did it give?
Answer: 6.30 to 7.00

Question: `CC1(C)[C@H](Oc2ccc(C#N)c(Cl)c2)C(C)(C)[C@H]1N1Cc2cc(C#CC3CCN(C4CN(c5ccc6c(c5)C(=O)N(C5CCC(=O)NC5=O)C6=O)C4)CC3)ccc2C1=O` (stereo partly shown) [Compound 53, 2-chloro-4-((1r,3r)-3-(5-((1-(I-(2-(2,6-dioxopiperidin-3-yl)-1,3-dioxoisoindolin-5-yl)azelaic acid-3-yl)piperidin-4-yl)ethynyl)-1-oxoisoindolin-2-yl)-2,2,4,4-tetramethylcyclobutoxy)benzonitrile] was tested. Which pIC50 [1] did it give?
Answer: 6.30 to 7.00

Question: `CC(=O)O[C@@H]1C[C@@H](C(=O)N[C@@H](C)c2ccc(-c3scnc3C)cc2)N(C(=O)[C@@H](NC(=O)COCC2CCN(c3ccc4c(c3)CN([C@H]3C(C)(C)[C@H](Oc5ccc(C#N)c(Cl)c5)C3(C)C)C4=O)CC2)C(C)(C)C)C1` [Compound 410] was tested. Which pIC50 [1] did it give?
Answer: > 7.00

Question: With `CC1(C)[C@H](Oc2ccc(C#N)c(Cl)c2)C(C)(C)[C@H]1N1Cc2cc(C#Cc3cnn(C4CN(c5cc6c(cc5F)C(=O)N(C5CCC(=O)NC5=O)C6=O)C4)c3)ccc2C1=O` (stereo partly shown) [Compound 45] as the compound, how does the pIC50 [1] read?
Answer: < 6.00

Question: How did the pIC50 (LNCaP/AR, 144 h) turn out when `Cc1ncsc1-c1ccc([C@H](C)NC(=O)[C@@H]2C[C@@H](O)CN2C(=O)[C@@H](NC(=O)COCCOC(C)C#Cc2ccc3c(c2)CN([C@H]2C(C)(C)[C@H](Oc4ccc(C#N)c(Cl)c4)C2(C)C)C3=O)C(C)(C)C)cc1` (stereo partly shown) [Compound 37] was run?
Answer: > 7.00

Question: With “(2R,4R)-1-((S)-2-(2-((6-(4-(((1r,3r)-3-(3-chloro-4-cyanophenoxy)-2,2,4,4-tetramethylcyclobutyl)(methoxy)benzamido)hex-5-yn-1-)oxy)acetamido)-3,3-dimethylbutyryl)-4-hydroxy-N-((S)-1-(4-(4-methylthiazol-5-)phenyl)ethyl) tetrahydropyrrole-2-amide [Compound 435]” as the compound, how does the pIC50 [2] read?
Answer: 6.00 to 6.30

Question: With `[2H]C1([2H])c2cc(C#CCCCOCC(=O)N[C@H](C(=O)N3C[C@H](O)C[C@H]3C(=O)N[C@@H](C)c3ccc(-c4scnc4C)cc3)C(C)(C)C)ccc2C(=O)N1[C@H]1C(C)(C)[C@H](Oc2ccc(C#N)c(Cl)c2)C1(C)C` [Compound 403] as the compound, how does the pIC50 [1] read?
Answer: > 7.00

Question: `N#Cc1ccc(O[C@H]2CC[C@H](N3Cc4cc(N5CCC(CN6CCN(c7cc8c(cc7F)C(=O)N(C7CCC(=O)NC7=O)C8=O)CC6)CC5)ncc4C3=O)CC2)cc1Cl` (stereo partly shown) [Compound 311] was tested. Which pIC50 (LNCaP/AR, 144 h) did it give?
Answer: < 6.00

Question: `Cc1ncsc1-c1ccc([C@H](C)NC(=O)[C@@H]2C[C@@H](O)CN2C(=O)[C@@H](NC(=O)CCN2CC(CC#Cc3ccc4c(c3)CN([C@H]3C(C)(C)[C@H](Oc5ccc(C#N)c(Cl)c5)C3(C)C)C4=O)C2)C(C)(C)C)cc1` [Compound 44] was tested. Which pIC50 (LNCaP/AR, 144 h) did it give?
Answer: 6.30 to 7.00
